Like-named read-outs stand apart in the source and are kept apart here. Blank lines part the entries; values can stand above or below the compound they belong to.
Target: T1, rNav1.2 sodium channels (Rattus norvegicus, UniProt P04775)
T1 construct: host or cells: HEK-293
Test: QPatch automated patch clamp, inhibition of sodium currents evoked by 5 Hz trains at three extracellular pH values
Assay type: cell-based
Settings: for class of pH-dependence pattern (cluster analysis): Ward's method on 18 variables of affinity, reversibility, onset
Procedure: HEK-293 cells stably expressing rNav1.2 sodium channels were obtained from NeuroSearch (Ballerup, Denmark). The cells were grown in Dulbecco's modified Eagle medium supplemented with 10% FBS. Prior to use, the cells were trypsinized and subsequently kept in suspension in the QPatch cell storage facility in CHO-S- SFM-II medium.
Composition of the extracellular solution was: (in mM): 140 NaCl, 3 KCl, 1 CaCl2 1 MgCl2, 0.1 CdCl2, 20 TEA-Cl, 5 HEPES, adjusted to pH 7.3, Osmolality: 320 mOsm. […] Drugs were synthesized in Gedeon Richter Plc. […] The full list of drugs, with their three-letter codes, concentration, as well as their main therapeutic indication and main mechanism of action are shown in Table 1. […] The choice of concentrations used in this study may seem unusually high.
Data were sampled at a frequency of 25 kHz and filtered at 5 kHz. Junction potential was calculated to be −11 mV and was corrected for. […] Cells having membrane resistance < 500 MOhm, series resistance > 9 MOhm, or capacitance > 22 pF were excluded from analysis. The experimental protocol was also identical to the one used in our previous study: sodium channels were activated by 5 Hz trains of 5 depolarizations (−90 to −10 mV) repeated in every 20 s. In this study, however, the same control–drug-application–washout sequence was repeated four times: at neutral, acidic, alkalic, and again neutral pH. The peak amplitudes of sodium currents throughout the whole experiment are shown plotted against time in Figure 1 and Supplementary Figure 1.
Initial analysis, including subtraction of leak and capacitive artifacts, as well as peak detection were done in the QPatch software. […] All experiments were normalized to the amplitude of the current evoked by the first depolarization of the last train under control conditions. […] For all four drug applications in an experiment, apparent affinity, onset and offset time constants as well as reversibility values were calculated. […] (This method is equivalent to applying the Lineweaver-Burk plot method using a single concentration.) Reversibility values were calculated from control (c), inhibited (i), and wash-out (w) amplitudes as follows: Reversibility = (w-i)/(c-i). Reversibility values should not be regarded as experimental platform-independent properties of compounds. […] However, reversibility values are a valuable source of information regarding physicochemical differences between individual drugs, or between effects of the same drug under different extracellular pH conditions. Onset and offset time constants were determined by single exponential fitting to individual experiments. For neutral pH numerical data were given as the average of the data from the first and the last drug applications. Thin black lines on Figure 1 and Supplemental Figure 1 show the average of five fitted exponentials, (not the exponential fitted to the averaged normalized amplitudes). The numerical values of apparent affinity, onset and offset time constants and reversibility are shown in Table 2, and their relative position is illustrated in Figure 2. Affinity and time constant values were logarithmically transformed for statistics, therefore we show their geometric mean. For recovery data no transformation was done, and we show arithmetic mean values. Significance values were calculated using paired, two-tailed Student's t-test based on five pairs of apparent affinity (log transform), time constant (log transform), or reversibility values obtained from five individual experiments. Because of the large number of comparisons in this study, we accepted p < 0.01 as significant. Cluster analysis was done using Ward's minimum variance method, with Euclidean distance measure. Data were normalized by subtracting the mean (after logarithmic transformation in the case of apparent affinity and time constants), and dividing by the standard deviation.

[1] = pH 6.0, concentration (lidocaine 300 μM, memantine 30 μM)
[2] = pH 6.0, single concentration (lidocaine 300 μM, memantine 30 μM), geometric mean of 5, read-out: apparent affinity
[3] = pH 7.3, concentration (lidocaine 300 μM, memantine 30 μM)
[4] = pH 7.3, single concentration (lidocaine 300 μM, memantine 30 μM), geometric mean of 5, read-out: apparent affinity
[5] = pH 8.6, concentration (lidocaine 300 μM, memantine 30 μM)
[6] = pH 8.6, single concentration (lidocaine 300 μM, memantine 30 μM), geometric mean of 5, read-out: apparent affinity
[7] = pH=6.0, cc 300 mM, read-out: Apparent Affinity
[8] = pH=7.3, cc 300 mM, read-out: Apparent Affinity
[9] = pH=8.6, cc 300 mM, read-out: Apparent Affinity
[10] = pH=6.0, cc 30 mM, read-out: Apparent Affinity
[11] = pH=7.3, cc 30 mM, read-out: Apparent Affinity
[12] = pH=8.6, cc 30 mM, read-out: Apparent Affinity

T1 sequence (P04775 whole entry): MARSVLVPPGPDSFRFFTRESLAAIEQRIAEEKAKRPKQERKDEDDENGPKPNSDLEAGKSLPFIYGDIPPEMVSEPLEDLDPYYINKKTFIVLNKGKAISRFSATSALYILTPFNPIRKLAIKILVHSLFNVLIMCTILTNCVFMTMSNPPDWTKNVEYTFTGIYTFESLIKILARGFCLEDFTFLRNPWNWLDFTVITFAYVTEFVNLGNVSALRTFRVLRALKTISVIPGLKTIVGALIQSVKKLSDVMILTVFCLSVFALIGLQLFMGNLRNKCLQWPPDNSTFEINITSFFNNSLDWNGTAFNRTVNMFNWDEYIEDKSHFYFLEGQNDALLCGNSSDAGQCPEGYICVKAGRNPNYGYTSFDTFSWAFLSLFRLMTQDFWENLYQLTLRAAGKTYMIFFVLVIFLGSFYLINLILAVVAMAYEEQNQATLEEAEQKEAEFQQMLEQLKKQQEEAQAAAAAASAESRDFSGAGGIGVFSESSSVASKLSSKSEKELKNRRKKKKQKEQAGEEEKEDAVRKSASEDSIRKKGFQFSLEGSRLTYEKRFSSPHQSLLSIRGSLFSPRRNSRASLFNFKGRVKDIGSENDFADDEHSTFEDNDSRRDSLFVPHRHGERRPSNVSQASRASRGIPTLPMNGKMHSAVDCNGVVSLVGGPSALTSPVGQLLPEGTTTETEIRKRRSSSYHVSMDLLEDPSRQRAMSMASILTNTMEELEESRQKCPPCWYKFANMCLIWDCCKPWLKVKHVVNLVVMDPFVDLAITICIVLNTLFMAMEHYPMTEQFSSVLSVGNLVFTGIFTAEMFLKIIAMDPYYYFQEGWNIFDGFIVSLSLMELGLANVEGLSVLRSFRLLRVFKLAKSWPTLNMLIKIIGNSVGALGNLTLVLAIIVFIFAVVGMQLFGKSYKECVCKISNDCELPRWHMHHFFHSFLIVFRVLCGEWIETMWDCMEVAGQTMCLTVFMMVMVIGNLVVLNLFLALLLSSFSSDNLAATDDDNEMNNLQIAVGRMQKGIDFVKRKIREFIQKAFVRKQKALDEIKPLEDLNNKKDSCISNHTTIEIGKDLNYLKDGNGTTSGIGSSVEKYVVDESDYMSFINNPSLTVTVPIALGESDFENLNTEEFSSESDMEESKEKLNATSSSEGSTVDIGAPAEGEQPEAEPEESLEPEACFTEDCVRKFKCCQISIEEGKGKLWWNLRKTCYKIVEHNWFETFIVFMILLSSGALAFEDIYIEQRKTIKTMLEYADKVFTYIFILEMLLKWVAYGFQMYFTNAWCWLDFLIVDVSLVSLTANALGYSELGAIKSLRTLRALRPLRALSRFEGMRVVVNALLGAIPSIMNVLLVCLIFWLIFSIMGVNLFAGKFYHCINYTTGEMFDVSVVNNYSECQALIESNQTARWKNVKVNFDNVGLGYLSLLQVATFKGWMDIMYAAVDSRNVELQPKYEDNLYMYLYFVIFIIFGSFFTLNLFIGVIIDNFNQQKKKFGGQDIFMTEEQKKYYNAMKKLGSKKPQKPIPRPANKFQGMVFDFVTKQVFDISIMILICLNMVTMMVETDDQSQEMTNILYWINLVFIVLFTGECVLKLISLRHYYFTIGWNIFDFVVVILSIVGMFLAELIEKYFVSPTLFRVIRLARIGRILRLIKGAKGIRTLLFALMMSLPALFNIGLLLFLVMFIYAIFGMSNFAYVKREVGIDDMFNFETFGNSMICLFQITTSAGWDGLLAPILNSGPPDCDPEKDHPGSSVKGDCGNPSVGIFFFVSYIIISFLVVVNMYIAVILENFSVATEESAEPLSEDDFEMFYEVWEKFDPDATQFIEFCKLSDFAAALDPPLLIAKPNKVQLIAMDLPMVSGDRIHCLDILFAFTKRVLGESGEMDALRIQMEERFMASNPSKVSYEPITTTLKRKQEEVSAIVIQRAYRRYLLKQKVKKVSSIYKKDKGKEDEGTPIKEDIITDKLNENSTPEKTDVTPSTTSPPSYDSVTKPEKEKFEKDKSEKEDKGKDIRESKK

- class of pH-dependence pattern (cluster analysis): Class A
- Ratio Reversibility (pH 6.0/7.3, cc 300 mM): 1.014
- Ratio Tau Offset (pH 6.0/7.3, cc 300 mM): 1.227
- Ratio Tau Onset (pH 6.0/7.3, cc 300 mM): 0.985
- log Ratio App Aff (pH 6.0/7.3, cc 300 mM): 0.026
- Ratio Reversibility (pH 6.0/8.6, cc 300 mM): 1.313
- Ratio Tau Offset (pH 6.0/8.6, cc 300 mM): 0.993
- Ratio Tau Onset (pH 6.0/8.6, cc 300 mM): 0.650
- log Ratio App Aff (pH 6.0/8.6, cc 300 mM): 0.109
- τoffset [1]: 21.26 s
- τonset [1]: 13.00 s
- Kd [2]: 830 µM
- Ratio Reversibility (pH 7.3/8.6, cc 300 mM): 1.295
- Ratio Tau Offset (pH 7.3/8.6, cc 300 mM): 0.809
- Ratio Tau Onset (pH 7.3/8.6, cc 300 mM): 0.660
- log Ratio App Aff (pH 7.3/8.6, cc 300 mM): 0.083
- τoffset [3]: 17.32 s
- τonset [3]: 13.20 s
- Kd [4]: 781 µM
- τoffset [5]: 21.40 s
- τonset [5]: 20.00 s
- Kd [6]: 646 µM
- Reversibility (pH=6.0, cc 300 mM): 0.83
- Kd [7]: 830 µM
- Reversibility (pH=7.3, cc 300 mM): 0.82
- Kd [8]: 781 µM
- Reversibility (pH=8.6, cc 300 mM): 0.63
- Kd [9]: 646 µM
Structure (SMILES): O=C1NC(=O)C(c2ccccc2)(c2ccccc2)N1 [phenytoin]

- class of pH-dependence pattern (cluster analysis): Class C
- τoffset [1]: 23.45 s
- τonset [1]: 16.40 s
- Kd [2]: 40.7 µM
- τoffset [3]: 19.66 s
- τonset [3]: 15.10 s
- Kd [4]: 25.6 µM
- τoffset [5]: 28.00 s
- τonset [5]: 14.70 s
- Kd [6]: 13.8 µM
Structure (SMILES): CN(C)CCC=C1c2ccccc2CCc2ccccc21 [amitriptyline]
- Ratio Reversibility (pH 6.0/7.3, cc 30 mM): 1.364
- Ratio Tau Offset (pH 6.0/7.3, cc 30 mM): 1.193
- Ratio Tau Onset (pH 6.0/7.3, cc 30 mM): 1.086
- log Ratio App Aff (pH 6.0/7.3, cc 30 mM): 0.202
- Ratio Reversibility (pH 6.0/8.6, cc 30 mM): 5.190
- Ratio Tau Offset (pH 6.0/8.6, cc 30 mM): 0.838
- Ratio Tau Onset (pH 6.0/8.6, cc 30 mM): 1.116
- log Ratio App Aff (pH 6.0/8.6, cc 30 mM): 0.469
- Ratio Reversibility (pH 7.3/8.6, cc 30 mM): 3.806
- Ratio Tau Offset (pH 7.3/8.6, cc 30 mM): 0.702
- Ratio Tau Onset (pH 7.3/8.6, cc 30 mM): 1.027
- log Ratio App Aff (pH 7.3/8.6, cc 30 mM): 0.267
- Reversibility (pH=6.0, cc 30 mM): 0.74
- Kd [10]: 40.7 µM
- Reversibility (pH=7.3, cc 30 mM): 0.55
- Kd [11]: 25.6 µM
- Reversibility (pH=8.6, cc 30 mM): 0.14
- Kd [12]: 13.8 µM

- fold more potent at neutral pH than at pH = 6.0 (30 μM): 3.5 fold
- fold more potent at neutral pH than at pH = 8.6 (30 μM): 5.9 fold
- class of pH-dependence pattern (cluster analysis): Class E
- effect of alkalic pH on onset/offset kinetics (in words): decelerated onset
- alkalization-induced recovery (neutral-to-alkalic solution exchange, in words): prominent alkalization-induced recovery
- reversibility at all three pH values (pH 6.0, 7.3 and 8.6): below 0.6
- τoffset [1]: 17.60 s
- τonset [1]: 11.80 s
- Kd [2]: 30.8 µM
- τoffset [3]: 20.40 s
- τonset [3]: 18.00 s
- Kd [4]: 8.87 µM
- τoffset [5]: 38.60 s
- τonset [5]: 30.00 s
- Kd [6]: 52.4 µM
Structure (SMILES): Cc1nc2sccn2c(=O)c1CCN1CCC(=C(c2ccc(F)cc2)c2ccc(F)cc2)CC1 [ritanserin]
- Ratio Reversibility (pH 6.0/7.3, cc 30 mM): 0.981
- Ratio Tau Offset (pH 6.0/7.3, cc 30 mM): 0.863
- Ratio Tau Onset (pH 6.0/7.3, cc 30 mM): 0.656
- log Ratio App Aff (pH 6.0/7.3, cc 30 mM): 0.541
- Ratio Reversibility (pH 6.0/8.6, cc 30 mM): 4.330
- Ratio Tau Offset (pH 6.0/8.6, cc 30 mM): 0.456
- Ratio Tau Onset (pH 6.0/8.6, cc 30 mM): 0.393
- log Ratio App Aff (pH 6.0/8.6, cc 30 mM): -0.230
- Ratio Reversibility (pH 7.3/8.6, cc 30 mM): 4.412
- Ratio Tau Offset (pH 7.3/8.6, cc 30 mM): 0.528
- Ratio Tau Onset (pH 7.3/8.6, cc 30 mM): 0.600
- log Ratio App Aff (pH 7.3/8.6, cc 30 mM): -0.772
- Reversibility (pH=6.0, cc 30 mM): 0.36
- Kd [10]: 30.8 µM
- Reversibility (pH=7.3, cc 30 mM): 0.37
- Kd [11]: 8.87 µM
- Reversibility (pH=8.6, cc 30 mM): 0.08
- Kd [12]: 52.4 µM

Structure (SMILES): COc1ccc(C(CN(C)C)C2(O)CCCCC2)cc1 (centres unmarked) [venlafaxine]
- Kd (Apparent Affinity, pH=6.0, cc 100 mM): 810 µM
- Kd (Apparent Affinity, pH=7.3, cc 100 mM): 539 µM
- Kd (Apparent Affinity, pH=8.6, cc 100 mM): 174 µM
- class of pH-dependence pattern (cluster analysis): Class D
- Kd (apparent affinity, pH 6.0, single concentration (lidocaine 300 μM, memantine 30 μM), geometric mean of 5): 810 µM
- Kd (apparent affinity, pH 7.3, single concentration (lidocaine 300 μM, memantine 30 μM), geometric mean of 5): 539 µM
- Kd (apparent affinity, pH 8.6, single concentration (lidocaine 300 μM, memantine 30 μM), geometric mean of 5): 174 µM
- inhibition at 100 µM (pH 6): < 25%
- Ratio Reversibility (pH 6.0/7.3, cc 100 mM): 0.250
- Ratio Tau Offset (pH 6.0/7.3, cc 100 mM): 1.446
- Ratio Tau Onset (pH 6.0/7.3, cc 100 mM): 1.639
- log Ratio App Aff (pH 6.0/7.3, cc 100 mM): 0.177
- Ratio Reversibility (pH 6.0/8.6, cc 100 mM): 0.250
- Ratio Tau Offset (pH 6.0/8.6, cc 100 mM): 1.330
- Ratio Tau Onset (pH 6.0/8.6, cc 100 mM): 1.405
- log Ratio App Aff (pH 6.0/8.6, cc 100 mM): 0.669
- τoffset [1]: 13.30 s
- τonset [1]: 11.80 s
- inhibition at 100 µM (pH 7.3): < 25%
- Ratio Reversibility (pH 7.3/8.6, cc 100 mM): 0.999
- Ratio Tau Offset (pH 7.3/8.6, cc 100 mM): 0.920
- Ratio Tau Onset (pH 7.3/8.6, cc 100 mM): 0.857
- log Ratio App Aff (pH 7.3/8.6, cc 100 mM): 0.492
- τoffset [3]: 9.20 s
- τonset [3]: 7.20 s
- τoffset [5]: 10.00 s
- τonset [5]: 8.40 s
- effect of acidic pH on recovery (pH = 6.0 vs 7.3, in words): decreased recovery
- Reversibility (pH=6.0, cc 100 mM): 0.18
- Reversibility (pH=7.3, cc 100 mM): 0.73
- Reversibility (pH=8.6, cc 100 mM): 0.73

Structure (SMILES): CCN(CC)CC(=O)Nc1c(C)cccc1C [lidocaine]
- class of pH-dependence pattern (cluster analysis): Class A
- τoffset [1]: 8.49 s
- τonset [1]: 6.17 s
- τonset (pH 6.0, higher concentration: lidocaine 1000 μM, memantine 100 μM): 5.20 s
- Kd (pH 6.0, higher concentration: lidocaine 1000 μM, memantine 100 μM, read-out: apparent affinity): 1670 µM
- Kd [2]: 917 µM
- τoffset [3]: 7.59 s
- τonset [3]: 5.14 s
- τonset (pH 7.3, higher concentration: lidocaine 1000 μM, memantine 100 μM): 5.20 s
- Kd (pH 7.3, higher concentration: lidocaine 1000 μM, memantine 100 μM, read-out: apparent affinity): 1030 µM
- Kd [4]: 806 µM
- τoffset [5]: 5.98 s
- τonset [5]: 4.86 s
- τonset (pH 8.6, higher concentration: lidocaine 1000 μM, memantine 100 μM): 5.60 s
- Kd (pH 8.6, higher concentration: lidocaine 1000 μM, memantine 100 μM, read-out: apparent affinity): 677 µM
- Kd [6]: 515 µM
- Reversibility (pH=6.0, cc 300 mM): 0.66
- Kd [7]: 917 µM
- Kd (pH=6.0, cc 1000 mM, read-out: Apparent Affinity): 1670 µM
- Kd [8]: 806 µM
- Kd (pH=7.3, cc 1000 mM, read-out: Apparent Affinity): 1030 µM
- Kd [9]: 515 µM
- Kd (pH=8.6, cc 1000 mM, read-out: Apparent Affinity): 677 µM

Source: paper PMC4585259 (Frontiers in Pharmacology, 2015)
